A value given as a limit tells only on which side of the number the result lay.

Experiment [1] deals with full-length human LSD1 (Homo sapiens (Human), UniProt O60341). The experiment in a line: In vitro enzyme inhibition assay LSD-1 (TR-FRET). As to conditions: H3K4me1-biotin peptide. The class given is biochemical. Here is the method:
This assay determines the ability of a test compound to inhibit LSD1 demethylase activity.
The enzymatic assay of LSD1 activity is based on Time Resolved-Fluorescence Resonance Energy Transfer (TR-FRET) detection.
Plates were read by EnVision Multilabel Reader in TR-FRET mode (excitation at 320 nm, emission at 615 nm and 665 nm) after 1 hour incubation at room temperature.
The ability of the compounds disclosed herein to inhibit LSD1 activity was quantified and the respective IC50 value was determined.
In general terms: Time-resolved FRET reads energy transfer from a long-lived donor to a nearby acceptor.

Experiment [2] has as its system THP-1 (AML) cells. The experiment in a line: LSD1 CD11b cellular assay (flow cytometry). As to conditions: Homo sapiens, THP-1, 96 h; CD11b expressing cells, 4 days incubation. In kind it is cell-based. As to the method: To analyze LSD1 inhibitor efficacy in cells, a CD11b flow cytometry assay was performed. LSD1 inhibition induces CD11b expression in THP-1 (AML) cells which can be measured by flow cytometry. […] LSD1 test compounds were serially diluted in DMSO. The dilutions were added to each well accordingly to a final concentration of 0.2% DMSO. The cells were incubated at 37 degrees Celsius in 5% CO2 for 4 days. 250 μL of each well was transferred to a well in a 96 well round bottom plate. The plate was centrifuged at 1200 rpm at 4 degrees Celsius in a Beckman Coulter Alegra 6KR centrifuge for 5 minutes. The media was removed leaving the cells at the bottom of the wells. The cells were washed in 100 μL cold HBSS (Hank's Balanced Salt Solution) plus 2% BSA (Bovine Serum Albumin) solution and centrifuged at 1200 rpm at 4 degrees Celsius for 5 minutes. The wash was removed. […] The cells were centrifuged and washed two times in 100 μL HBSS plus 2% BSA. After the final spin the cells were resuspended in 100 μL HBSS plus 2% BSA containing 1 ug/mL DAPI (4′,6-diamidino-2-phenylindole). The cells were then analyzed by flow cytometry in a BD FACSAria machine. Cells were analyzed for CD11b expression. The percent of CD11b expressing cells for each inhibitor concentration was used to determine an IC50 curve for each compound analyzed.

One may read the IC50 as the concentration at which inhibition is half-maximal. Low readings indicate higher potency, high ones lower potency. For the molecule `Cn1c(-c2ccc(C3CC3)cc2)c(-c2ccc(C#N)c(F)c2)nc(N2CCC(N)CC2)c1=O` [Example 50, 4-[6-(4-amino-piperidin-1-yl)-3-(4-cyclopropyl-phenyl)-4-methyl-5-oxo-4,5-dihydro-pyrazin-2-yl]-2-fluoro-benzonitrile], the concentration for half-maximal inhibition (IC50) in experiment [1] and in experiment [2] was below 100 nM in each case.

On to `COc1ccc(-c2c(-c3ccc(C#N)nc3)nc(N3CCC(N)CC3)c(=O)n2C)cc1` [Example 51, 5-[6-(4-amino-piperidin-1-yl)-3-(4-methoxy-phenyl)-4-methyl-5-oxo-4,5-dihydro-pyrazin-2-yl]-pyridine-2-carbonitrile], for which the IC50 in experiment [1] and in experiment [2] was below 100 nM each time.

`COc1ccc(-c2c(-c3ccc(C#N)c(F)c3)nc(N3CCC(N)CC3)c(=O)n2C)cc1` [Example 52, 4-[6-(4-amino-piperidin-1-yl)-3-(4-methoxy-phenyl)-4-methyl-5-oxo-4,5-dihydro-pyrazin-2-yl]-2-fluoro-benzonitrile]: the IC50 in experiment [1] and in experiment [2] was below 100 nM throughout.

For the molecule `Cn1c(-c2ccc(C3CC3)cc2)c(-c2ccc(C#N)nc2)nc(N2CCC(N)CC2)c1=O` [Example 53, 5-[6-(4-amino-piperidin-1-yl)-3-(4-cyclopropyl-phenyl)-4-methyl-5-oxo-4,5-dihydro-pyrazin-2-yl]-pyridine-2-carbonitrile], the 50% inhibitory concentration (IC50) in experiment [1] and in experiment [2] was below 100 nM in each case.

On to `COc1ccc(-c2c(-c3ccc(C#N)nc3)nc(NC[C@H]3CCNC3)c(=O)n2C)cc1` [Example 54, 5-{3-(4-methoxy-phenyl)-4-methyl-5-oxo-6-[((3S)-pyrrolidin-3-ylmethyl)-amino]-4,5-dihydro-pyrazin-2-yl}-pyridine-2-carbonitrile], for which the half-inhibitory concentration (IC50) in experiment [1] and in experiment [2] was below 100 nM throughout.

With `CCc1ccc(-c2c(-c3ccc(C#N)nc3)nc(NC[C@H]3CCNC3)c(=O)n2C)cc1` [Example 56, 5-{3-(4-ethyl-phenyl)-4-methyl-5-oxo-6-[((3S)-pyrrolidin-3-ylmethyl)-amino]-4,5-dihydro-pyrazin-2-yl}-pyridine-2-carbonitrile], the IC50 in experiment [1] and in experiment [2] was below 100 nM throughout.

For the molecule `CCc1ccc(-c2c(-c3ccc(C#N)c(F)c3)nc(NC[C@H]3CCNC3)c(=O)n2C)cc1` [Example 57, 4-{3-(4-ethyl-phenyl)-4-methyl-5-oxo-6-[((3S)-pyrrolidin-3-ylmethyl)-amino]-4,5-dihydro-pyrazin-2-yl}-2-fluoro-benzonitrile], the IC50 in experiment [1] and in experiment [2] was below 100 nM each time.

Regarding `Cn1c(-c2ccc(C3CC3)cc2)c(-c2ccc(C#N)nc2)nc(NC[C@H]2CCNC2)c1=O` [Example 58, 5-{3-(4-cyclopropyl-phenyl)-4-methyl-5-oxo-6-[((3S)-pyrrolidin-3-ylmethyl)-amino]-4,5-dihydro-pyrazin-2-yl}-pyridine-2-carbonitrile], the values for the IC50 in experiment [1] and in experiment [2] were below 100 nM and 100 to 1000 nM, respectively.

Regarding `Cn1c(-c2ccc(C3CC3)cc2)c(-c2ccc(C#N)c(F)c2)nc(NC[C@H]2CCNC2)c1=O` [Example 59, 4-{3-(4-cyclopropyl-phenyl)-4-methyl-5-oxo-6-[((3S)-pyrrolidin-3-ylmethyl)-amino]-4,5-dihydro-pyrazin-2-yl}-2-fluoro-benzonitrile], the IC50 in experiment [1] and in experiment [2] was below 100 nM each time.

Take `Cn1c(-c2ccc(OCC3CC3)cc2)c(-c2ccc(C#N)c(F)c2)nc(NC[C@H]2CCNC2)c1=O` [Example 61, 4-{3-(4-cyclopropylmethoxy-phenyl)-4-methyl-5-oxo-6-[((3S)-pyrrolidin-3-ylmethyl)-amino]-4,5-dihydro-pyrazin-2-yl}-2-fluoro-benzonitrile]: the IC50 in experiment [1] and in experiment [2] was below 100 nM each time.

With `CCOc1ccc(-c2c(-c3ccc(C#N)c(F)c3)nc(NC[C@H]3CCNC3)c(=O)n2C)cc1` [Example 62, 4-{3-(4-ethoxy-phenyl)-4-methyl-5-oxo-6-[((3S)-pyrrolidin-3-ylmethyl)-amino]-4,5-dihydro-pyrazin-2-yl}-2-fluoro-benzonitrile], the IC50 in experiment [1] and in experiment [2] was below 100 nM in each case.

On to `Cn1c(-c2ccc(OC(F)(F)F)cc2)c(-c2ccc(C#N)c(F)c2)nc(NC[C@H]2CCNC2)c1=O` [Example 63, 2-fluoro-4-[4-methyl-5-oxo-6-[((3S)-pyrrolidin-3-ylmethyl)-amino]-3-(4-trifluoromethoxy-phenyl)-4,5-dihydro-pyrazin-2-yl]-benzonitrile], for which the IC50 in experiment [1] and in experiment [2] was below 100 nM throughout.

On to `CNC1CCN(c2nc(-c3ccc(C#N)c(F)c3)c(-c3ccc(C)cc3)n(CCCO)c2=O)CC1` [Example 64, 2-Fluoro-4-[4-(3-hydroxy-propyl)-6-(4-methylamino-piperidin-1-yl)-5-oxo-3-p-tolyl-4,5-dihydro-pyrazin-2-yl]-benzonitrile], for which the IC50 in experiment [1] and in experiment [2] was below 100 nM throughout.

In the case of `CNC1CCN(c2nc(-c3ccc(C#N)c(F)c3)c(-c3ccc(C)cc3)n(CCO)c2=O)CC1` [Example 65, 2-Fluoro-4-[4-(2-hydroxy-ethyl)-6-(4-methylamino-piperidin-1-yl)-5-oxo-3-p-tolyl-4,5-dihydro-pyrazin-2-yl]-benzonitrile], the IC50 in experiment [1] and in experiment [2] was below 100 nM each time.

On to `COc1ccc(-c2c(-c3ccc(C#N)c(F)c3)cc(N3CCC(N)CC3)c(=O)n2C)cc1` [Example 67, 4-(5-(4-aminopiperidin-1-yl)-2-(4-methoxyphenyl)-1-methyl-6-oxo-1,6-dihydropyridin-3-yl)-2-fluorobenzonitrile], for which the IC50 in experiment [1] and in experiment [2] was below 100 nM throughout.

With `COc1ccc(-c2c(-c3ccc(C#N)nc3)cc(N3CCC(N)CC3)c(=O)n2C)cc1` [Example 68, 5-(5-(4-aminopiperidin-1-yl)-2-(4-methoxyphenyl)-1-methyl-6-oxo-1,6-dihydropyridin-3-yl)picolinonitrile], the half-inhibitory concentration (IC50) in experiment [1] is below 100 nM; in experiment [2], 100 to 1000 nM.

In the case of `COc1ccc(-c2c(-c3ccc(C#N)nc3)cc(NC[C@H]3CCNC3)c(=O)n2C)cc1` [Example 69, (S)-5-(2-(4-methoxyphenyl)-1-methyl-6-oxo-5-(pyrrolidin-3-ylmethylamino)-1,6-dihydropyridin-3-yl)picolinonitrile], the IC50 in experiment [1] is below 100 nM; in experiment [2] it was 100 to 1000 nM.

Consider `CCc1ccc(-c2c(-c3ccc(C#N)nc3)cc(NC[C@H]3CCNC3)c(=O)n2C)cc1` [Example 71, (S)-5-(2-(4-ethylphenyl)-1-methyl-6-oxo-5-(pyrrolidin-3-ylmethylamino)-1,6-dihydropyridin-3-yl)picolinonitrile], for which the IC50 in experiment [1] and in experiment [2] was below 100 nM each time.

For `CCc1ccc(-c2c(-c3ccc(C#N)c(F)c3)cc(NC[C@H]3CCNC3)c(=O)n2C)cc1` [Example 72, (S)-4-(2-(4-ethylphenyl)-1-methyl-6-oxo-5-(pyrrolidin-3-ylmethylamino)-1,6-dihydropyridin-3-yl)-2-fluorobenzonitrile], the 50% inhibitory concentration (IC50) in experiment [1] and in experiment [2] was below 100 nM throughout.

As to `Cn1c(-c2ccc(C3CC3)cc2)c(-c2ccc(C#N)nc2)cc(NC[C@H]2CCNC2)c1=O` [Example 73, (S)-5-(2-(4-cyclopropylphenyl)-1-methyl-6-oxo-5-(pyrrolidin-3-ylmethylamino)-1,6-dihydropyridin-3-yl)picolinonitrile], the IC50 in experiment [1] and in experiment [2] was below 100 nM each time.

`CNC1CCN(c2cc(-c3ccc(C#N)cc3)c(-c3ccc(OC)cc3)n(C)c2=O)CC1` [Example 78, 4-{2-(4-methoxyphenyl)-1-methyl-5-[4-(methylamino)piperidyl]-6-oxo-3-hydropyridyl}benzenecarbonitrile]: the IC50 in experiment [1] and in experiment [2] was below 100 nM throughout.

Consider `CNC1CCN(c2cc(-c3ccc(C#N)c(F)c3)c(-c3ccc(OC)cc3)n(C)c2=O)CC1` [Example 79, 2-fluoro-4-{2-(4-methoxyphenyl)-1-methyl-5-[4-(methylamino)piperidyl]-6-oxo(3-hydropyridyl)}benzenecarbonitrile], for which the IC50 in experiment [1] and in experiment [2] was below 100 nM each time.

Turning to `CNC1CCN(c2cc(-c3ccc(C#N)cc3)c(-c3ccc(C)cc3)n(C)c2=O)CC1` [Example 80, 4-{1-methyl-5-[4-(methylamino)piperidyl]-2-(4-methylphenyl)-6-oxo-3-hydropyridyl}benzenecarbonitrile], the IC50 in experiment [1] and in experiment [2] was below 100 nM in each case.

For the molecule `COc1ccc(-c2c(-c3ccc(C#N)cc3)cc(N3CCC(N)CC3)c(=O)n2CC2CC2)cc1` [Example 81, 4-[5-(4-aminopiperidin-1-yl)-1-(cyclopropylmethyl)-2-(4-methoxyphenyl)-6-oxopyridin-3-yl]benzonitrile], the half-maximal inhibitory concentration (IC50) in experiment [1] and in experiment [2] was below 100 nM in each case.

Source of the values: patent publication US11028066B2, “Inhibitors of lysine specific demethylase-1” (CELGENE QUANTICEL RESEARCH, INC., priority 2014, dated 2021).
